Assay results: patent US10407395B2, “Benzimidazole compound and medical use thereof” (Sumitomo Dainippon Pharma Co., Ltd., priority 2015, dated 2019)

Columns and labels:
[1] = target: human SCN9A (Nav 1.7) (Homo sapiens, UniProt Q15858); assay: Measurement of Na ion current (Nav 1.7) by automated patch clamp assay in cells stably-expressing human SCN9A; format: cell-based; conditions: compound concentration 10 μmol/L; holding potential inactivating 50% Nav 1.7 channel (around −60 mV); read-out: Inhibitory rate (%) of Na ion current
Outline: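 Tetracycline-inducible cells stably expressing human SCN9A were recorded by automated patch clamp at room temperature. Inhibition rate derived from peak Na current evoked by depolarizing pulse, compared with and without test compound.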

[2] = system: rats streptozotocin (STZ)-induced diabetic peripheral neuropathy model; assay: Evaluation of analgesic effect (von Frey test) in streptozotocin-induced diabetic peripheral neuropathy model; format: in vivo, rat; conditions: male Wistar rats, 3 mg/kg of body weight, orally, one hour before measuring
Description: Test (2) Evaluation of Analgesic Effect in Streptozotocin-Induced Diabetic Peripheral Neuropathy Models
Using some typical compounds among the compounds of the present invention, the inhibitory effect for neuropathic pain was determined through the evaluation of analgesic effect in rats streptozotocin (STZ)-induced diabetic peripheral neuropathy model.
The disease animal model was prepared by means of a partially-modified method of Fox et al. (Pain 81, 307-316, 1999). STZ was intraperitoneally administered to 9-week old male Wistar rats in 45 mg/kg of body weight to prepare animal model suffering from diabetic peripheral neuropathy. The analgesic effect was evaluated by von Frey test. Specifically, mechanical sensitivity was measured by applying hairs (von Frey hair) to the plantar surface of the animal's hind paw, and then the reaction thresholds (50% paw withdrawal thresholds) for the mechanical stimulation was determined by using a formula based on Chaplan et al. (Journal of Neuroscience Methods 53, 55-63, 1994).
One and two days before evaluating the test compounds, the reaction thresholds were measured to obtain an average thereof, and the average value was used as a reference value obtained before the test compounds would be administered.
In order to reduce the variations of the averaged values among the test groups and the measured values in each group, the animals were divided into 4 to 5 groups.
In the evaluation test of the test compounds, the reaction thresholds were measured after administering each test compound. One hour before measuring the reaction thresholds, each test compound was administered in 3 mg/kg of body weight. The strength of analgesic effect of each test compound is expressed as the extension width (g) of reaction thresholds which is obtained by the calculation formula of (reaction threshold obtained after administering test compound)−(reaction threshold obtained before administering test compound).

Chain of human SCN9A (Nav 1.7) (Q15858 whole entry): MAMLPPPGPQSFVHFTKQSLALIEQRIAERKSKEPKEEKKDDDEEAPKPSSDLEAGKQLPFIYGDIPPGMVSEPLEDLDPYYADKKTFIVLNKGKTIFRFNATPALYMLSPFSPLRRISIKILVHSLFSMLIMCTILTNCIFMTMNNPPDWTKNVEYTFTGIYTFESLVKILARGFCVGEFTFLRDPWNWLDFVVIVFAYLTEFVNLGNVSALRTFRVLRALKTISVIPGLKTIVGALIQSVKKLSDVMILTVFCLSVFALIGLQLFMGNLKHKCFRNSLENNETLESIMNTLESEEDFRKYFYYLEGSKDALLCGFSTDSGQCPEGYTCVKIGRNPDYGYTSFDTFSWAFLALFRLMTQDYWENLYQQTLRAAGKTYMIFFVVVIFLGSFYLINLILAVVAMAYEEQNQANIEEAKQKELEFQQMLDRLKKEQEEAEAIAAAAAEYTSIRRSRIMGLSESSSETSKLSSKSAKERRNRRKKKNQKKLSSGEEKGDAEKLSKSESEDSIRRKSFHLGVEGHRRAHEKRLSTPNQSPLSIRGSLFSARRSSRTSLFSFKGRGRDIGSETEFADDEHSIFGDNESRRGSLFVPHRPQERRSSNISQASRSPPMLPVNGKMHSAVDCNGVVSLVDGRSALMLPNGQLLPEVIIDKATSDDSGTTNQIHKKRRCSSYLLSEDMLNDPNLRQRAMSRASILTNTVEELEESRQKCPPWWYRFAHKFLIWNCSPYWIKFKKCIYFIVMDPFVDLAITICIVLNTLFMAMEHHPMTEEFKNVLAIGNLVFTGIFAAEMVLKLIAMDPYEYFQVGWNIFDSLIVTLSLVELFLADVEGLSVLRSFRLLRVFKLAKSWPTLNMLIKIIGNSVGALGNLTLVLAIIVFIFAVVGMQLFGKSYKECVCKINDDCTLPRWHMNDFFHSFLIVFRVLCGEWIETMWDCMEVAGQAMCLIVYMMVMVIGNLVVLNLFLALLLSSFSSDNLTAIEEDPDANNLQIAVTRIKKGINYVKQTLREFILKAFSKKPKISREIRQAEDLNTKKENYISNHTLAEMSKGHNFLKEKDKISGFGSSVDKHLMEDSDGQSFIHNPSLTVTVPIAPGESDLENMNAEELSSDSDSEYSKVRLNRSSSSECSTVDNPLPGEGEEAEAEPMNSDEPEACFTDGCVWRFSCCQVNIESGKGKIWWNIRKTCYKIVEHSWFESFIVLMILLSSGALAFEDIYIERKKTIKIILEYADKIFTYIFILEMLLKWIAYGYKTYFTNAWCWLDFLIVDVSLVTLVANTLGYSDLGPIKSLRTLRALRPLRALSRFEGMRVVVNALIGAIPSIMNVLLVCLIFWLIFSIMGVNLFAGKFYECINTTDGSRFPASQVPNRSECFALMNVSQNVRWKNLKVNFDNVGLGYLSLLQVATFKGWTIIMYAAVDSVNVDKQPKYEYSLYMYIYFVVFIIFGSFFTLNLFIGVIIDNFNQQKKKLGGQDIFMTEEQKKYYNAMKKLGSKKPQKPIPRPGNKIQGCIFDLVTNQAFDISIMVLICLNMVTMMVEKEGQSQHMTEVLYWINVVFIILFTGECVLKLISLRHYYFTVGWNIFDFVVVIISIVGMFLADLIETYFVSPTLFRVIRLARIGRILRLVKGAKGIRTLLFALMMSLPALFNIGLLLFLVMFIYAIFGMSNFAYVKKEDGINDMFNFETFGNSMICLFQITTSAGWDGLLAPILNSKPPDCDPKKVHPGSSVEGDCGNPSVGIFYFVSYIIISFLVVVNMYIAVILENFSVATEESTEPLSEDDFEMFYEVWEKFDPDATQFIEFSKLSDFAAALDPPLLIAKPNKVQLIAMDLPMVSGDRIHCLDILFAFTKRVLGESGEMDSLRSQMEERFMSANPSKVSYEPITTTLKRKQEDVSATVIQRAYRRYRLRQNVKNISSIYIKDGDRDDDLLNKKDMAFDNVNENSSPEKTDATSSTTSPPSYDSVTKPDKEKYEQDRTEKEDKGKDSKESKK

For `CC(C)(O)Cn1cnc2ccc(-c3ccc(C(F)(F)F)cc3F)cc21` [Example 123, 1-{6-[2-fluoro-4-(trifluoromethyl)phenyl]-1H-benzimidazol-1-yl}-2-methylpropan-2-ol], the inhibition at 10 µM [1] was 64% and the “extension width (g) of reaction thresholds (50% paw withdrawal threshold after minus before administering test compound)” value [2] was 1.3 g.

With `COc1cc(C(F)(F)F)ccc1-c1ccc2ncn(CC3(O)COC3)c2c1` [Example 148, 3-({6-[2-methoxy-4-(trifluoromethyl)phenyl]-1H-benzimidazol-1-yl}methyl)oxetan-3-ol] the inhibition at 10 µM [1] was 59% and the “extension width (g) of reaction thresholds (50% paw withdrawal threshold after minus before administering test compound)” value [2] was 3.7 g.

`CC(C)(O)Cn1cnc2cc(-c3ccc(OC(F)(F)F)cc3)ccc21` [Example 179, 2-methyl-1-{5-[4-(trifluoromethoxy)phenyl]-1H-benzimidazol-1-yl}propan-2-ol] was tested, and the inhibition at 10 µM [1] was 61% and the “extension width (g) of reaction thresholds (50% paw withdrawal threshold after minus before administering test compound)” value [2] was 6.5 g.

In the case of `CC(C)(O)Cn1cnc2cc(-c3ccc(C(F)(F)F)cc3F)ccc21` [Example 181, 1-{5-[2-fluoro-4-(trifluoromethyl)phenyl]-1H-benzimidazol-1-yl}-2-methylpropan-2-ol], the inhibition at 10 µM [1] is reported as 45% and the “extension width (g) of reaction thresholds (50% paw withdrawal threshold after minus before administering test compound)” value [2] is reported as 2.5 g.

For `COc1cc(C(F)(F)F)ccc1-c1ccc2c(c1)ncn2CC1(O)COC1` [Example 205, 3-({5-[2-methoxy-4-(trifluoromethyl)phenyl]-1H-benzimidazol-1-yl}methyl)oxetan-3-ol], the inhibition at 10 µM [1] was 46% and the “extension width (g) of reaction thresholds (50% paw withdrawal threshold after minus before administering test compound)” value [2] was 1.6 g.

With `C[C@H](n1cnc2ccc(Oc3ccc(C(F)(F)F)cn3)cc21)C(C)(C)O` [Example 229, (3S)-2-methyl-3-(6-{[5-(trifluoromethyl)pyridin-2-yl]oxy}-1H-benzimidazol-1-yl)butan-2-ol] the inhibition at 10 µM [1] was 32% and the “extension width (g) of reaction thresholds (50% paw withdrawal threshold after minus before administering test compound)” value [2] was 3.9 g.
